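Results reflect a 48-hour exposure of cells in 96-well plates to compound at five concentrations. GI50 is the concentration that inhibits growth by half. TGI is the concentration that stops growth completely.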
Assays:
Test in all cases: NCI tumour cell line growth inhibition, 48 h
786-0 renal = tested on: 786-0 renal
A498 renal = tested on: A498 renal
A549 NSCLC = tested on: A549 NSCLC
ACHN renal = tested on: ACHN renal
BT-549 breast = tested on: BT-549 breast
CAKI-1 renal = tested on: CAKI-1 renal
CCRF-CEM leukemia = tested on: CCRF-CEM leukemia
COLO 205 colon = tested on: COLO 205 colon
DU-145 prostate = tested on: DU-145 prostate
EKVX NSCLC = tested on: EKVX NSCLC
HCC-2998 colon = tested on: HCC-2998 colon
HCT-116 colon = tested on: HCT-116 colon
HCT-15 colon = tested on: HCT-15 colon
HL-60(TB) leukemia = tested on: HL-60(TB) leukemia
HOP-62 NSCLC = tested on: HOP-62 NSCLC
HOP-92 NSCLC = tested on: HOP-92 NSCLC
HS 578T breast = tested on: HS 578T breast
HT29 colon = tested on: HT29 colon
IGROV1 ovarian = tested on: IGROV1 ovarian
K-562 leukemia = tested on: K-562 leukemia
KM12 colon = tested on: KM12 colon
LOX IMVI melanoma = tested on: LOX IMVI melanoma
M14 melanoma = tested on: M14 melanoma
MALME-3M melanoma = tested on: MALME-3M melanoma
MCF7 breast = tested on: MCF7 breast
MDA-MB-231 breast = tested on: MDA-MB-231 breast
MDA-MB-435 = tested on: MDA-MB-435
MOLT-4 leukemia = tested on: MOLT-4 leukemia
NCI-H226 lung = tested on: NCI-H226 lung
NCI-H23 lung = tested on: NCI-H23 lung
NCI-H460 lung = tested on: NCI-H460 lung
NCI-H522 lung = tested on: NCI-H522 lung
NCI/ADR-RES ovarian = tested on: NCI/ADR-RES ovarian
OVCAR-3 ovarian = tested on: OVCAR-3 ovarian
OVCAR-4 ovarian = tested on: OVCAR-4 ovarian
OVCAR-5 ovarian = tested on: OVCAR-5 ovarian
OVCAR-8 ovarian = tested on: OVCAR-8 ovarian
PC-3 prostate = tested on: PC-3 prostate
RPMI-8226 leukemia = tested on: RPMI-8226 leukemia
RXF 393 renal = tested on: RXF 393 renal
SF-268 CNS = tested on: SF-268 CNS
SF-295 CNS = tested on: SF-295 CNS
SF-539 CNS = tested on: SF-539 CNS
SK-MEL-2 melanoma = tested on: SK-MEL-2 melanoma
SK-MEL-28 melanoma = tested on: SK-MEL-28 melanoma
SK-MEL-5 melanoma = tested on: SK-MEL-5 melanoma
SK-OV-3 ovarian = tested on: SK-OV-3 ovarian
SN12C renal = tested on: SN12C renal
SNB-19 CNS = tested on: SNB-19 CNS
SNB-75 CNS = tested on: SNB-75 CNS
SR leukemia = tested on: SR leukemia
SW-620 colon = tested on: SW-620 colon
T-47D breast = tested on: T-47D breast
TK-10 renal = tested on: TK-10 renal
U251 CNS = tested on: U251 CNS
UACC-257 melanoma = tested on: UACC-257 melanoma
UACC-62 melanoma = tested on: UACC-62 melanoma
UO-31 renal = tested on: UO-31 renal

Q: Which results are given for `O=C1/C(=C/c2ccc(Cl)c(Cl)c2)CN(C(=O)CCN2CCC(=NO)CC2)C/C1=C\c1ccc(Cl)c(Cl)c1`?
A: GI50 (786-0 renal): 0.609 µM; TGI (786-0 renal): 1.45 µM; GI50 (A498 renal): 1.44 µM; TGI (A498 renal): 2.89 µM; GI50 (A549 NSCLC): 2.15 µM; TGI (A549 NSCLC): 6.47 µM; GI50 (ACHN renal): 0.641 µM; TGI (ACHN renal): 1.62 µM; GI50 (BT-549 breast): 0.829 µM; TGI (BT-549 breast): 1.84 µM; GI50 (CAKI-1 renal): 0.584 µM; TGI (CAKI-1 renal): 1.78 µM; GI50 (CCRF-CEM leukemia): 0.292 µM; TGI (CCRF-CEM leukemia): 1.73 µM; GI50 (COLO 205 colon): 0.391 µM; TGI (COLO 205 colon): 1.54 µM; GI50 (DU-145 prostate): 1.21 µM; TGI (DU-145 prostate): 2.73 µM; GI50 (EKVX NSCLC): 1.31 µM; TGI (EKVX NSCLC): 3.05 µM; GI50 (HCC-2998 colon): 0.807 µM; TGI (HCC-2998 colon): 2.11 µM; GI50 (HCT-116 colon): 0.267 µM; TGI (HCT-116 colon): 0.778 µM; GI50 (HCT-15 colon): 0.325 µM; TGI (HCT-15 colon): 1.16 µM; GI50 (HL-60(TB) leukemia): 1.48 µM; TGI (HL-60(TB) leukemia): 4.37 µM; GI50 (HOP-62 NSCLC): 1.26 µM; TGI (HOP-62 NSCLC): 3.11 µM; GI50 (HOP-92 NSCLC): 1.56 µM; TGI (HOP-92 NSCLC): 3.82 µM; GI50 (HS 578T breast): 1.43 µM; TGI (HS 578T breast): 5.68 µM; GI50 (HT29 colon): 0.328 µM; TGI (HT29 colon): 1.25 µM; GI50 (IGROV1 ovarian): 0.534 µM; TGI (IGROV1 ovarian): 1.41 µM; GI50 (K-562 leukemia): 0.191 µM; GI50 (KM12 colon): 0.368 µM; TGI (KM12 colon): 1.14 µM; GI50 (LOX IMVI melanoma): 0.256 µM; TGI (LOX IMVI melanoma): 0.612 µM; GI50 (M14 melanoma): 0.782 µM; TGI (M14 melanoma): 2.23 µM; GI50 (MALME-3M melanoma): 1.32 µM; TGI (MALME-3M melanoma): 2.78 µM; GI50 (MCF7 breast): 0.333 µM; TGI (MCF7 breast): 1.74 µM; GI50 (MDA-MB-231 breast): 0.616 µM; TGI (MDA-MB-231 breast): 1.85 µM; GI50 (MDA-MB-435): 0.827 µM; TGI (MDA-MB-435): 2.12 µM; GI50 (MOLT-4 leukemia): 0.458 µM; TGI (MOLT-4 leukemia): 2.26 µM; GI50 (NCI-H226 lung): 1.26 µM; TGI (NCI-H226 lung): 2.53 µM; GI50 (NCI-H23 lung): 1.04 µM; TGI (NCI-H23 lung): 3.01 µM; GI50 (NCI-H460 lung): 0.933 µM; TGI (NCI-H460 lung): 2.57 µM; GI50 (NCI-H522 lung): 0.369 µM; TGI (NCI-H522 lung): 1.59 µM; GI50 (NCI/ADR-RES ovarian): 1.02 µM; TGI (NCI/ADR-RES ovarian): 4.04 µM; GI50 (OVCAR-3 ovarian): 0.574 µM; TGI (OVCAR-3 ovarian): 1.64 µM; GI50 (OVCAR-4 ovarian): 0.678 µM; TGI (OVCAR-4 ovarian): 1.96 µM; GI50 (OVCAR-5 ovarian): 1.13 µM; TGI (OVCAR-5 ovarian): 2.74 µM; GI50 (OVCAR-8 ovarian): 0.651 µM; TGI (OVCAR-8 ovarian): 2.62 µM; GI50 (PC-3 prostate): 0.545 µM; TGI (PC-3 prostate): 1.66 µM; GI50 (RPMI-8226 leukemia): 0.253 µM; TGI (RPMI-8226 leukemia): 0.84 µM; GI50 (RXF 393 renal): 1.13 µM; TGI (RXF 393 renal): 2.59 µM; GI50 (SF-268 CNS): 1.06 µM; TGI (SF-268 CNS): 2.88 µM; GI50 (SF-295 CNS): 1.05 µM; TGI (SF-295 CNS): 2.59 µM; GI50 (SF-539 CNS): 0.753 µM; TGI (SF-539 CNS): 1.97 µM; GI50 (SK-MEL-2 melanoma): 2.05 µM; TGI (SK-MEL-2 melanoma): 4.3 µM; GI50 (SK-MEL-28 melanoma): 1.64 µM; TGI (SK-MEL-28 melanoma): 3.07 µM; GI50 (SK-MEL-5 melanoma): 1.58 µM; TGI (SK-MEL-5 melanoma): 3 µM; GI50 (SK-OV-3 ovarian): 1.85 µM; TGI (SK-OV-3 ovarian): 3.48 µM; GI50 (SN12C renal): 0.597 µM; TGI (SN12C renal): 1.73 µM; GI50 (SNB-19 CNS): 0.599 µM; TGI (SNB-19 CNS): 1.8 µM; GI50 (SNB-75 CNS): 1.38 µM; TGI (SNB-75 CNS): 3.17 µM; GI50 (SR leukemia): 0.353 µM; TGI (SR leukemia): > 100 µM; GI50 (SW-620 colon): 0.247 µM; TGI (SW-620 colon): 0.708 µM; GI50 (T-47D breast): 1.1 µM; TGI (T-47D breast): 3.59 µM; GI50 (TK-10 renal): 1.61 µM; TGI (TK-10 renal): 3.18 µM; GI50 (U251 CNS): 0.268 µM; TGI (U251 CNS): 0.818 µM; GI50 (UACC-257 melanoma): 1.74 µM; TGI (UACC-257 melanoma): 3.86 µM; GI50 (UACC-62 melanoma): 0.664 µM; TGI (UACC-62 melanoma): 1.87 µM; GI50 (UO-31 renal): 0.654 µM; TGI (UO-31 renal): 1.34 µM

From PubChem BioAssay (NCI)
